Reference: patent US10106504B2, “Pyridin-3-yl acetic acid derivatives as inhibitors of human immunodeficiency virus replication” (priority 2015, dated 2018)
Like-named read-outs stand apart in the source and are kept apart here.

Test system: NL-RLuc virus
Test: Inhibition of HIV replication (NL-RLuc virus, luciferase readout in MT-2 cells)
Format: cell-based
Settings: Human immunodeficiency virus 1, MT2, 120 h
Description: Inhibition of HIV Replication:
A recombinant NL-RLuc proviral clone was constructed in which a section of the nef gene from NL4-3 was replaced with the Renilla Luciferase gene. This virus is fully infectious and can undergo multiple cycles of replication in cell culture. In addition, the luciferous reporter provides a simple and easy method for quantitating the extent of virus growth and consequently, the antiviral activity of test compounds. The plasmid pNLRLuc contains the proviral NL-Rluc DNA cloned into pUC18 at the PvuII site. The NL-RLuc virus was prepared by transfection of 293T cells with the plasmid pNLRLuc. Transfections were performed using the LipofectAMINE PLUS kit from Invitrogen (Carlsbad, Calif.) according to the manufacturer and the virus generated was titered in MT-2 cells. For susceptibility analyses, the titrated virus was used to infect MT-2 cells in the presence of compound, and after 5 days of incubation, cells were processed and quantitated for virus growth by the amount of expressed luciferase. Assay media was RPMI 1640 supplemented with 10% heat inactivated fetal bovine serum (FBS), 100 units/ml penicillin G/100 units/ml streptomycin, 10 mM HEPES buffer pH 7.55 and 2 mM L-glutamine. The results from at least 2 experiments were used to calculate the EC50 values. Luciferase was quantitated using the Dual Luciferase kit from Promega (Madison, Wis.). Susceptibility of viruses to compounds was determined by incubation in the presence of serial dilutions of the compound. The 50% effective concentration (EC50) was calculated by using the exponential form of the median effect equation where (Fa)=1/[1+(ED50/drug conc.)^m] (Johnson V A, Byington R T. Infectivity Assay. In Techniques in HIV Research. ed. Aldovini A, Walker BD. 71-76. New York: Stockton Press. 1990). Activity equal to A refers to a compound having an EC50<100 nM, while B and C denote compounds having an EC50 between 100 nM and 1 uM (B) or >1 uM (C).

Row | Structure (SMILES) | EC50 (read-out: Activity) [µM] | EC50 (read-out: EC50 μM) [µM]
1 | Cc1cccc(Cl)c1CN1CCc2cc(-c3c(N)nc(C)c([C@H](OC(C)(C)C)C(=O)O)c3-c3ccc4c(c3)CCCO4)ccc2C1 [Example 63, (S)-2-(6-Amino-5-(2-(2-chloro-6-methylbenzyl)-1,2,3,4-tetrahydroisoquinolin-6-yl)-4-(chroman-6-yl)-2-methylpyridin-3-yl)-2-(tert-butoxy)acetic Acid] | < 0.1 | –
2 | Cc1cc(N2CCc3cc(-c4c(CCCC5CCOCC5)nc(C)c([C@H](OC(C)(C)C)C(=O)O)c4-c4ccc5c(c4)CCCO5)ccc3C2)ncn1 [Example 67, (S)-2-(tert-Butoxy)-2-(4-(chroman-6-yl)-2-methyl-5-(2-(6-methylpyrimidin-4-yl)-1,2,3,4-tetrahydroisoquinolin-6-yl)-6-(3-(tetrahydro-2H-pyran-4-yl)propyl)pyridin-3-yl)acetic Acid] | < 0.1 | –
3 | Cc1cc(F)ccc1CN1CCc2cc(-c3c(N)nc(C)c([C@H](OC(C)(C)C)C(=O)O)c3-c3ccc4c(c3)CCCO4)ccc2C1 [Example 60, (S)-2-(6-Amino-4-(chroman-6-yl)-5-(2-(4-fluoro-2-methylbenzyl)-1,2,3,4-tetrahydroisoquinolin-6-yl)-2-methylpyridin-3-yl)-2-(tert-butoxy)acetic Acid] | < 0.1 | 0.003
4 | Cc1nc(C)c([C@H](OC(C)(C)C)C(=O)O)c(-c2ccc3c(c2)CCCO3)c1-c1ccc2c(c1)CCN(Cc1ccccc1Cl)C2 [Example 27, (S)-2-(tert-Butoxy)-2-(5-(2-(2-chlorobenzyl)-1,2,3,4-tetrahydroisoquinolin-6-yl)-4-(chroman-6-yl)-2,6-dimethylpyridin-3-yl)acetic Acid] | < 0.1 | 0.005
5 | COc1nccc(N2CCc3cc(-c4c(C)nc(C)c([C@H](OC(C)(C)C)C(=O)O)c4-c4ccc5c(c4)CCCO5)ccc3C2)n1 [Example 57, (S)-2-(tert-Butoxy)-2-(4-(chroman-6-yl)-5-(2-(2-methoxypyrimidin-4-yl)-1,2,3,4-tetrahydroisoquinolin-6-yl)-2,6-dimethylpyridin-3-yl)acetic Acid] | < 0.1 | –
6 | Cc1nc(C)c([C@H](OC(C)(C)C)C(=O)O)c(-c2ccc3c(c2)CCCO3)c1-c1ccc(OCCc2ccccc2F)cc1 [Example 45, (S)-2-(tert-Butoxy)-2-(4-(chroman-6-yl)-5-(4-(2-fluorophenethoxy)phenyl)-2,6-dimethylpyridin-3-yl)acetic Acid] | < 0.1 | –
7 | Cc1nc(CN(C)CC2CCOCC2)c(-c2ccc3c(c2)CCN(c2ncnc4c2cnn4C)C3)c(-c2ccc3c(c2)CCCO3)c1[C@H](OC(C)(C)C)C(=O)O [Example 32, (S)-2-(tert-Butoxy)-2-(4-(chroman-6-yl)-2-methyl-6-((methyl((tetrahydro-2H-pyran-4-yl)methyl)amino)methyl)-5-(2-(1-methyl-1H-pyrazolo[3,4-d]pyrimidin-4-yl)-1,2,3,4-tetrahydroisoquinolin-6-yl)pyridin-3-yl)acetic Acid] | 0.1 to 1 | –
8 | Cc1nc(CN(C)C)c(-c2ccc(OCCc3ccc(F)cc3)cc2)c(-c2ccc3c(c2)CCCO3)c1[C@H](OC(C)(C)C)C(=O)O [Example 10, (S)-2-(tert-Butoxy)-2-(4-(chroman-6-yl)-6-((dimethylamino)methyl)-5-(4-(4-fluorophenethoxy)phenyl)-2-methylpyridin-3-yl)acetic Acid] | < 0.1 | –
9 | Cc1ccccc1CN1CCc2cc(-c3c(C)nc(C)c([C@H](OC(C)(C)C)C(=O)O)c3-c3cc(F)c4c(c3C)CCCO4)ccc2C1 [Example 40, (2S)-2-(tert-Butoxy)-2-(4-(8-fluoro-5-methylchroman-6-yl)-2,6-dimethyl-5-(2-(2-methylbenzyl)-1,2,3,4-tetrahydroisoquinolin-6-yl)pyridin-3-yl)acetic Acid] | < 0.1 | –
10 | Cc1cc(N2CCc3cc(-c4c(N)nc(C)c([C@H](OC(C)(C)C)C(=O)O)c4-c4ccc5c(c4)CCCO5)ccc3C2)nc(C)n1 [Example 65, (S)-2-(6-Amino-4-(chroman-6-yl)-5-(2-(2,6-dimethylpyrimidin-4-yl)-1,2,3,4-tetrahydroisoquinolin-6-yl)-2-methylpyridin-3-yl)-2-(tert-butoxy)acetic Acid] | < 0.1 | –
11 | Cc1cc(N2CCc3cc(-c4c(CN(C)CC5CCOCC5)nc(C)c([C@H](OC(C)(C)C)C(=O)O)c4-c4ccc5c(c4)CCCO5)ccc3C2)ncn1 [Example 33, (S)-2-(tert-Butoxy)-2-(4-(chroman-6-yl)-2-methyl-6-((methyl((tetrahydro-2H-pyran-4-yl)methyl)amino)methyl)-5-(2-(6-methylpyrimidin-4-yl)-1,2,3,4-tetrahydroisoquinolin-6-yl)pyridin-3-yl)acetic Acid] | 0.1 to 1 | 0.282
12 | Cc1cccc(Cl)c1CN1CCc2cc(-c3c(CN(C)CC4CCOCC4)nc(C)c([C@H](OC(C)(C)C)C(=O)O)c3-c3ccc4c(c3)CCCO4)ccc2C1 [Example 35, (S)-2-(tert-Butoxy)-2-(5-(2-(2-chloro-6-methylbenzyl)-1,2,3,4-tetrahydroisoquinolin-6-yl)-4-(chroman-6-yl)-2-methyl-6-((methyl((tetrahydro-2H-pyran-4-yl)methyl)amino)methyl)pyridin-3-yl)acetic Acid] | < 0.1 | –
13 | Cc1nc(C)c([C@H](OC(C)(C)C)C(=O)O)c(-c2ccc3c(c2)CCCO3)c1-c1ccc2c(c1)CCN(C(=O)OCc1ccccc1)C2 [Example 19, (S)-2-(5-(2-((Benzyloxy)carbonyl)-1,2,3,4-tetrahydroisoquinolin-6-yl)-4-(chroman-6-yl)-2,6-dimethylpyridin-3-yl)-2-(tert-butoxy)acetic Acid] | < 0.1 | 0.069
14 | Cc1nc(C)c([C@H](OC(C)(C)C)C(=O)O)c(-c2ccc3c(c2)CCCO3)c1-c1ccc(OCCc2ccc(F)cc2F)cc1 [Example 44, (S)-2-(tert-Butoxy)-2-(4-(chroman-6-yl)-5-(4-(2,4-difluorophenethoxy)phenyl)-2,6-dimethylpyridin-3-yl)acetic Acid] | < 0.1 | –
15 | Cc1cccc(Cl)c1CN1CCc2cc(-c3c(C)nc(C)c([C@H](OC(C)(C)C)C(=O)O)c3-c3cc(F)c4c(c3)CCCO4)ccc2C1 [Example 51, (S)-2-(tert-Butoxy)-2-(5-(2-(2-chloro-6-methylbenzyl)-1,2,3,4-tetrahydroisoquinolin-6-yl)-4-(8-fluorochroman-6-yl)-2,6-dimethylpyridin-3-yl)acetic Acid] | < 0.1 | –
16 | COc1nccc(N2CCc3cc(-c4c(N)nc(C)c([C@H](OC(C)(C)C)C(=O)O)c4-c4ccc5c(c4)CCCO5)ccc3C2)n1 [Example 64, (S)-2-(6-Amino-4-(chroman-6-yl)-5-(2-(2-methoxypyrimidin-4-yl)-1,2,3,4-tetrahydroisoquinolin-6-yl)-2-methylpyridin-3-yl)-2-(tert-butoxy)acetic Acid] | < 0.1 | –
17 | Cc1ccc(CN2CCc3cc(-c4c(C)nc(C)c([C@H](OC(C)(C)C)C(=O)O)c4-c4ccc5c(c4)CCCO5)ccc3C2)c(C)c1 [Example 28, (S)-2-(tert-Butoxy)-2-(4-(chroman-6-yl)-5-(2-(2,4-dimethylbenzyl)-1,2,3,4-tetrahydroisoquinolin-6-yl)-2,6-dimethylpyridin-3-yl)acetic Acid] | < 0.1 | –
18 | Cc1nc(C)c([C@H](OC(C)(C)C)C(=O)O)c(-c2ccc3c(c2)C(F)(F)CCO3)c1-c1ccc2c(c1)CCN(Cc1ccccc1F)C2 [Example 37, (S)-2-(tert-Butoxy)-2-(4-(4,4-difluorochroman-6-yl)-5-(2-(2-fluorobenzyl)-1,2,3,4-tetrahydroisoquinolin-6-yl)-2,6-dimethylpyridin-3-yl)acetic Acid] | < 0.1 | –
19 | Cc1cccc(Cl)c1CN1CCc2cc(-c3c(C)nc(C)c([C@H](OC(C)(C)C)C(=O)O)c3-c3ccc4c(c3)CCCO4)ccc2C1 [Example 29, (S)-2-(tert-Butoxy)-2-(5-(2-(2-chloro-6-methylbenzyl)-1,2,3,4-tetrahydroisoquinolin-6-yl)-4-(chroman-6-yl)-2,6-dimethylpyridin-3-yl)acetic Acid] | < 0.1 | –
20 | Cc1nc(C)c([C@H](OC(C)(C)C)C(=O)O)c(C2=CCC(C)(C)CC2)c1-c1ccc(OCCc2ccc(F)cc2)cc1 [Example 46, (S)-2-(tert-Butoxy)-2-(4-(4,4-dimethylcyclohex-1-en-1-yl)-5-(4-(4-fluorophenethoxy)phenyl)-2,6-dimethylpyridin-3-yl)acetic Acid] | < 0.1 | 0.061
21 | Cc1cc(F)ccc1CN1CCc2cc(-c3c(C)nc(C)c([C@H](OC(C)(C)C)C(=O)O)c3-c3cc(F)c4c(c3)CCCO4)ccc2C1 [Example 50, (S)-2-(tert-Butoxy)-2-(5-(2-(4-fluoro-2-methylbenzyl)-1,2,3,4-tetrahydroisoquinolin-6-yl)-4-(8-fluorochroman-6-yl)-2,6-dimethylpyridin-3-yl)acetic Acid] | < 0.1 | –
